Test in all cases: radioligand saturation binding, Sephadex G-25 gel filtration
Background: In gel filtration, larger molecules generally elute earlier.

For experiment [1], the target named is T1, DORN1 WT (LEC), lectin domain only (Arabidopsis thaliana, UniProt Q9LSR8).
T1 construct: gene LECRK19; L-type lectin domain only, recombinant from E. coli (GST fusion likely)
T1 sequence (Q9LSR8 22-257 limits assumed): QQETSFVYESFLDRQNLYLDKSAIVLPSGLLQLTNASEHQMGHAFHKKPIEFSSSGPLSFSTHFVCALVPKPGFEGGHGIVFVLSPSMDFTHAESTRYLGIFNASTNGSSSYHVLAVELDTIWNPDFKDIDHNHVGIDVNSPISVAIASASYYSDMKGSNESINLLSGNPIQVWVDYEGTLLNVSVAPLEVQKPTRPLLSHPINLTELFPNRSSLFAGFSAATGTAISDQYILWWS
As to conditions: [γ-32P]ATP labelled compound; 10 mM HEPES pH 7.5, 5 mM MgCl2, on ice 30 min. The source says:
radioligand saturation binding, Sephadex G-25 gel filtration on DORN1 WT (LEC), lectin domain only | WT (LEC): lectin domain only, WT (ECD): extracellular domain

For experiment [2], the target named is T2, DORN1 WT (ECD), extracellular domain (Arabidopsis thaliana, UniProt Q9LSR8).
T2 construct: gene LECRK19; extracellular domain, signal peptide removed, pGEX-5X N-terminal GST fusion, E. coli BL21-AI, glutathione Sepharose; primers encode QETSFVY...APHKKVST
T2 sequence (Q9LSR8 23-288): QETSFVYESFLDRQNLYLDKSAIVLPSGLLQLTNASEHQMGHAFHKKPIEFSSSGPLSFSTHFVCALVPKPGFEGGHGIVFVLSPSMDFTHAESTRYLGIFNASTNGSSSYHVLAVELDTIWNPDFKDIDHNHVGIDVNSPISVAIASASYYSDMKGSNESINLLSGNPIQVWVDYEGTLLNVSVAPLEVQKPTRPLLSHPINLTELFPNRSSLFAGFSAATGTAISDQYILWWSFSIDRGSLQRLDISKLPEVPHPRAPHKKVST

For experiment [3], the target named is T3, DORN1 WT (ECD), extracellular domain (Arabidopsis thaliana, UniProt Q9LSR8, DEL141-146).
T3 construct: gene LECRK19; extracellular domain, signal peptide removed, pGEX-5X N-terminal GST fusion, E. coli BL21-AI, glutathione Sepharose; primers encode QETSFVY...APHKKVST
T3 sequence (Q9LSR8 with tags, fused parts or gaps DEL141-146): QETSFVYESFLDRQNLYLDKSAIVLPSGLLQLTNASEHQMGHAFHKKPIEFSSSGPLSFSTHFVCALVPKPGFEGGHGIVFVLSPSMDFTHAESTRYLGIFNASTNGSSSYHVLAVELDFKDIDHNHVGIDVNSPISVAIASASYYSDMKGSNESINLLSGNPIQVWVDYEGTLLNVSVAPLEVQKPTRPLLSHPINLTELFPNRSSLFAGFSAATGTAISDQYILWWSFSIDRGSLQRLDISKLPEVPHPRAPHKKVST

Experiment [4] addresses T4, DORN1 WT (ECD), extracellular domain (Arabidopsis thaliana, UniProt Q9LSR8, DEL116-118).
T4 construct: gene LECRK19; extracellular domain, signal peptide removed, pGEX-5X N-terminal GST fusion, E. coli BL21-AI, glutathione Sepharose; primers encode QETSFVY...APHKKVST
T4 sequence (Q9LSR8 with tags, fused parts or gaps DEL116-118): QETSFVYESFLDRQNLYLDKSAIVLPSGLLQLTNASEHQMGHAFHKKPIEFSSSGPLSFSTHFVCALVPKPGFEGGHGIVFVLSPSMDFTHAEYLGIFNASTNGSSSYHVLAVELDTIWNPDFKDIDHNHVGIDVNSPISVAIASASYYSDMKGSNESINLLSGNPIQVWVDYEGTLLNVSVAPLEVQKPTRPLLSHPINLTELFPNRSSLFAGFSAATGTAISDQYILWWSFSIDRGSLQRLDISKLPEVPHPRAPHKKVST

In general, Kd refers to the equilibrium constant for the complex coming apart. Higher therefore signals weaker binding.

For `Nc1ncnc2c1ncn2[C@@H]1O[C@H](COP(=O)(O)OP(=O)(O)OP(=O)(O)O)[C@@H](O)[C@H]1O` [ATP], the Kd amounted to 0.0526 µM in experiment [1], 0.0383 µM in experiment [2], 0.19 µM in experiment [3] and 0.534 µM in experiment [4].
